From patent US20200017496A1 (priority 2017, published 2020)
Read-outs that look alike come from different tables or passages of the source.

What was measured:
Experiment in all cases: MIC of compounds alone and combined with antibacterials, broth microdilution (CLSI)
Assay type in all cases: cell-based
[1] = tested on: Klebsiella pneumoniae (KPN) isolates; settings: Klebsiella pneumoniae, read-out: MIC
How it was run: (§1)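 Compound MIC, and antibacterial MIC at each fixed compound level, taken by visual inspection as lowest concentration stopping growth. Inoculum: log-phase bacteria, final 5·10^5 CFU/mL, cation-adjusted Mueller-Hinton broth; 16-20 h, 35° C, ambient air.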

[2] = tested on: Citrobacter koseri (CKR) isolates; settings: for MIC: Citrobacter koseri, read-out: MIC
How it was run: as §1

[3] = tested on: Providencia stuartii (PST) isolates; settings: for MIC: Providencia stuartii, read-out: MIC
How it was run: as §1

[4] = tested on: Salmonella typhimurium (STY) isolates; settings: for MIC ATB in combination: STY S3371; for MIC: Salmonella enterica, TYPHIMURIUM, strain STY S3371 (OXA-1)
How it was run: as §1

[5] = tested on: Klebsiella oxytoca (KOX) isolates; settings: for MIC: Klebsiella oxytoca
How it was run: as §1

**Q.** How did the MIC ([1]; strain KPN UFR217 (TEM-1, SHV-1, CTX-M-15), CLA @ 4 μg/ml+ ATB) turn out when `C=CC1=C(C(=O)O)N2C(=O)[C@@H](NC(=O)/C(=N\OCC(=O)O)c3csc(N)n3)[C@H]2SC1` [FIX, Cefixime] was run?
**A.** The MIC was at most 0.25 µg/mL.

**Q.** And the MIC ([1]; strain KPN UFR219 (SHV-12, CTX-M-15), ATB alone)?
**A.** Its MIC is over 128 µg/mL.

**Q.** What about the MIC ([1]; strain KPN UFR219 (SHV-12, CTX-M-15), CLA @ 4 μg/ml+ ATB) of the same compound?
**A.** Its MIC is 0.5 µg/mL.

**Q.** And the MIC ([1]; strain KPN UFR220 (TEM-1, SHV-12, DHA-1), ATB alone)?
**A.** The MIC was over 128 µg/mL.

**Q.** And the MIC ([1]; strain KPN UFR220 (TEM-1, SHV-12, DHA-1), CLA @ 4 μg/ml+ ATB)?
**A.** Its MIC is over 128 µg/mL.

**Q.** What about the MIC ([1]; strain KPN UFR221 (TEM-1, SHV-11, CTX-M-14, DHA-1), ATB alone) of the same compound?
**A.** The MIC was 64 µg/mL.

**Q.** And the MIC ([1]; strain KPN UFR221 (TEM-1, SHV-11, CTX-M-14, DHA-1), CLA @ 4 μg/ml+ ATB)?
**A.** Its MIC is 128 µg/mL.

**Q.** What about the MIC ([1]; strain KPN UFR222 (DHA-2), ATB alone) of the same compound?
**A.** Its MIC is over 128 µg/mL.

**Q.** What about the MIC ([1]; strain KPN UFR222 (DHA-2), CLA @ 4 μg/ml+ ATB) of the same compound?
**A.** Its MIC is over 128 µg/mL.

**Q.** And the MIC ([1]; strain KPN UFR227O (TEM-x, SHV-x, CTX-M-x), ATB alone)?
**A.** The MIC was over 128 µg/mL.

**Q.** And the MIC ([1]; strain KPN UFR227O (TEM-x, SHV-x, CTX-M-x), CLA @ 4 μg/ml+ ATB)?
**A.** Its MIC is over 128 µg/mL.

**Q.** What about the “MIC ATB in combination” value ([2]; CKO ROU, AF1 @ 4 μg/mL) of the same compound?
**A.** The value was “<=0.25 μg/mL”.

**Q.** What about the “MIC ATB in combination” value ([2]; CKO ROU, AF1 @ 8 μg/mL) of the same compound?
**A.** Its value is “<=0.25 μg/mL”.

**Q.** What about the “MIC ATB in combination” value ([2]; CKO UFR149, AF1 @ 4 μg/mL) of the same compound?
**A.** Its value is 0.5 µg/mL.

**Q.** And the “MIC ATB in combination” value ([2]; CKO UFR149, AF1 @ 8 μg/mL)?
**A.** The value was “<=0.25 μg/mL”.

**Q.** And the “MIC ATB in combination” value ([2]; CKO UFR150, AF1 @ 4 μg/mL)?
**A.** The value was 2 µg/mL.

**Q.** And the “MIC ATB in combination” value ([2]; CKO UFR150, AF1 @ 8 μg/mL)?
**A.** The value was 1 µg/mL.

**Q.** What about the MIC ([2]; strain CKO ROU (TEM-1, SHV-12, CTX-M-15, OXA-1, OXA-48), ATB alone) of the same compound?
**A.** The MIC was 1 µg/mL.

**Q.** What about the MIC ([2]; strain CKO ROU (TEM-1, SHV-12, CTX-M-15, OXA-1, OXA-48), CLA @ 4 μg/ml+ ATB) of the same compound?
**A.** The MIC was 2 µg/mL.

**Q.** And the MIC ([2]; strain CKO UFR149 (OXA-48), ATB alone)?
**A.** The MIC was 0.5 µg/mL.

**Q.** What about the MIC ([2]; strain CKO UFR149 (OXA-48), CLA @ 4 μg/ml+ ATB) of the same compound?
**A.** The MIC was 1 µg/mL.

**Q.** What about the MIC ([2]; strain CKO UFR150 (TEM-1, OXA-48), ATB alone) of the same compound?
**A.** The MIC was 2 µg/mL.

**Q.** What about the MIC ([2]; strain CKO UFR150 (TEM-1, OXA-48), CLA @ 4 μg/ml+ ATB) of the same compound?
**A.** Its MIC is 2 µg/mL.

**Q.** And the “MIC ATB in combination” value ([3]; PST UFR94, AF1 @ 4 μg/mL)?
**A.** Its value is “<=0.25 μg/mL”.

**Q.** And the “MIC ATB in combination” value ([3]; PST UFR94, AF1 @ 8 μg/mL)?
**A.** The value was “<=0.25 μg/mL”.

**Q.** What about the “MIC ATB in combination” value ([3]; PST UFR95, AF1 @ 4 μg/mL) of the same compound?
**A.** The value was “<=0.25 μg/mL”.

**Q.** And the “MIC ATB in combination” value ([3]; PST UFR95, AF1 @ 8 μg/mL)?
**A.** The value was “<=0.25 μg/mL”.

**Q.** And the “MIC ATB in combination” value ([3]; PST UFR235, AF1 @ 4 μg/mL)?
**A.** Its value is 0.125 µg/mL.

**Q.** And the “MIC ATB in combination” value ([3]; PST UFR235, AF1 @ 8 μg/mL)?
**A.** Its value is 0.063 µg/mL.

**Q.** What about the MIC ([3]; PST UFR235, alone) of the same compound?
**A.** Its MIC is 512 µg/mL.

**Q.** What about the MIC ([3]; strain PST UFR94 (CTX-M-14), ATB alone) of the same compound?
**A.** Its MIC is 0.5 µg/mL.

**Q.** And the MIC ([3]; strain PST UFR94 (CTX-M-14), CLA @ 4 μg/ml+ ATB)?
**A.** The MIC was 2 µg/mL.

**Q.** What about the MIC ([3]; strain PST UFR95 (TEM-24), ATB alone) of the same compound?
**A.** Its MIC is 4 µg/mL.

**Q.** What about the MIC ([3]; strain PST UFR95 (TEM-24), CLA @ 4 μg/ml+ ATB) of the same compound?
**A.** Its MIC is 8 µg/mL.

**Q.** And the MIC ([3]; strain PST UFR235 (VEB-1), ATB alone)?
**A.** The MIC was 512 µg/mL.

**Q.** What about the MIC ([3]; strain PST UFR235 (VEB-1), CLA @ 4 μg/ml+ ATB) of the same compound?
**A.** The MIC was 8 µg/mL.

**Q.** What about the “MIC ATB in combination” value ([4]; AF1 @ 4 μg/mL) of the same compound?
**A.** The value was “<=0.25 μg/mL”.

**Q.** What about the “MIC ATB in combination” value ([4]; AF1 @ 8 μg/mL) of the same compound?
**A.** Its value is “<=0.25 μg/mL”.

**Q.** And the MIC ([4]; ATB alone)?
**A.** Its MIC is at most 0.25 µg/mL.

**Q.** What about the MIC ([4]; CLA @ 4 μg/ml+ ATB) of the same compound?
**A.** Its MIC is at most 0.25 µg/mL.

**Q.** What about the “MIC ATB in combination” value ([5]; KOX UFR21, AF1 @ 4 μg/mL) of the same compound?
**A.** The value was 2 µg/mL.

**Q.** And the “MIC ATB in combination” value ([5]; KOX UFR21, AF1 @ 8 μg/mL)?
**A.** The value was 1 µg/mL.

**Q.** What about the “MIC ATB in combination” value ([5]; KOX UFR173, AF1 @ 4 μg/mL) of the same compound?
**A.** The value was “<=0.25 μg/mL”.

**Q.** And the “MIC ATB in combination” value ([5]; KOX UFR173, AF1 @ 8 μg/mL)?
**A.** The value was “<=0.25 μg/mL”.

**Q.** What about the “MIC ATB in combination” value ([5]; KOX UFR223, AF1 @ 4 μg/mL) of the same compound?
**A.** The value was “<=0.25 μg/mL”.

**Q.** And the “MIC ATB in combination” value ([5]; KOX UFR223, AF1 @ 8 μg/mL)?
**A.** The value was “<=0.25 μg/mL”.

**Q.** And the “MIC ATB in combination” value ([5]; KOX UFR224, AF1 @ 4 μg/mL)?
**A.** The value was “<=0.25 μg/mL”.

**Q.** What about the “MIC ATB in combination” value ([5]; KOX UFR224, AF1 @ 8 μg/mL) of the same compound?
**A.** Its value is “<=0.25 μg/mL”.

**Q.** What about the MIC ([5]; strain KOX UFR21 (TEM-1, CTX-M-15, OXA-48), ATB alone) of the same compound?
**A.** Its MIC is over 128 µg/mL.

**Q.** And the MIC ([5]; strain KOX UFR21 (TEM-1, CTX-M-15, OXA-48), CLA @ 4 μg/ml+ ATB)?
**A.** Its MIC is over 128 µg/mL.

**Q.** And the MIC ([5]; strain KOX UFR173 (OXY2-2), ATB alone, read-out: MIC)?
**A.** The MIC was 16 µg/mL.

**Q.** What about the MIC ([5]; strain KOX UFR173 (OXY2-2), CLA @ 4 μg/ml+ ATB, read-out: MIC) of the same compound?
**A.** The MIC was 4 µg/mL.

**Q.** What about the MIC ([5]; strain KOX UFR223 (SHV-11, OXA-48), ATB alone, read-out: MIC) of the same compound?
**A.** Its MIC is at most 0.125 µg/mL.

**Q.** What about the MIC ([5]; strain KOX UFR223 (SHV-11, OXA-48), CLA @ 4 μg/ml+ ATB, read-out: MIC) of the same compound?
**A.** The MIC was at most 0.25 µg/mL.

**Q.** What about the MIC ([5]; strain KOX UFR224 (CTX-M-15, OXA-48), ATB alone) of the same compound?
**A.** The MIC was over 128 µg/mL.

**Q.** What about the MIC ([5]; strain KOX UFR224 (CTX-M-15, OXA-48), CLA @ 4 μg/ml+ ATB, read-out: MIC) of the same compound?
**A.** The MIC was 8 µg/mL.
